Results published in patent US7138361B2, “Herbicidal heterocycles” (E. I. du Pont de Nemours and Company, priority 2000, dated 2006).

Columns and labels:
Assay type in all cases: in vivo
Sunflower [1] = assay: Test C preemergence; conditions: Rate 500 g/ha, visual evaluation after 12 to 14 days
Sunflower [2] = assay: Test C preemergence; conditions: Rate 250 g/ha, scale 0 to 100, 0 no effect, 100 complete control
wild oat (Avena fatua) = assay: Test B postemergence
Outline: (§1)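 Visual injury scores, 0 = no effect to 100 = complete control, assigned against controls after 13 to 15 days in the greenhouse. Compounds formulated in non-phytotoxic solvent plus surfactant and applied to soil after planting (pre) or onto foliage of 1- to 4-leaf plants (post).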

[3] = tested on: giant foxtail (Setaria faberii); assay: Test B postemergence
Outline: as §1

[4] = tested on: crabgrass (Digitaria sanguinalis); assay: Test B postemergence
Outline: as §1

[5] = tested on: pigweed (Amaranthus retroflexus); assay: Test B postemergence
Outline: as §1

[6] = tested on: cocklebur (Xanthium strumarium); assay: Test B postemergence
Outline: as §1

[7] = tested on: wheat (Triticum aestivum); assay: Test B postemergence
Outline: as §1

[8] = tested on: blackgrass (Alopecurus myosuroides); assay: Test B postemergence
Outline: as §1

rice (Oryza saliva) [9] = assay: Test C flooded paddy test; conditions: for Rice plant response rating: Flooded Paddy, Rate 500 g/ha, scale 0 to 100, 0 no effect, 100 complete control; for Plant response rating, Rice / Plant response rating (scale 0 to 100), Rice: flooded paddy test; for Plant response rating, Rice: scale 0 to 100 (0 no effect, 100 complete control); for Plant response rating (scale 0 to 100), Rice: Rate 62 g/ha, visually evaluated after 12 to 14 days, 0 = no effect, 100 = complete control
Outline: (§2)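 Visually assessed vs untreated controls 12–14 d post-treatment (greenhouse). Flooded paddy plants were at the 2-leaf stage; scale 0 = no effect, 100 = complete control.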

[10] = tested on: barnyardgrass (Echinochloa crus-galli); assay: Test C flooded paddy test; conditions: for Barnyardgrass plant response rating: Flooded Paddy, Rate 500 g/ha, scale 0 to 100, 0 no effect, 100 complete control; for Plant response rating, Barnyardgrass / Plant response rating (scale 0 to 100), Barnyardgrass: flooded paddy test; for Plant response rating, Barnyardgrass: scale 0 to 100 (0 no effect, 100 complete control); for Plant response rating (scale 0 to 100), Barnyardgrass: Rate 62 g/ha, visually evaluated after 12 to 14 days, 0 = no effect, 100 = complete control
Outline: as §2

[11] = tested on: duck salad (Heteranthera limosa); assay: Test C flooded paddy test; conditions: for Ducksalad plant response rating: Flooded Paddy, Rate 500 g/ha, scale 0 to 100, 0 no effect, 100 complete control; for Plant response rating, Ducksalad / Plant response rating (scale 0 to 100), Ducksalad: flooded paddy test; for Plant response rating, Ducksalad: scale 0 to 100 (0 no effect, 100 complete control); for Plant response rating (scale 0 to 100), Ducksalad: Rate 62 g/ha, visually evaluated after 12 to 14 days, 0 = no effect, 100 = complete control
Outline: as §2

[12] = tested on: smallflower flatsedge (Cyperus difformis); assay: Test C flooded paddy test; conditions: for Flatsedge plant response rating: Flooded Paddy, Rate 500 g/ha, scale 0 to 100, 0 no effect, 100 complete control; for Plant response rating, Flatsedge / Plant response rating (scale 0 to 100), Flatsedge: flooded paddy test; for Plant response rating, Flatsedge: scale 0 to 100 (0 no effect, 100 complete control); for Plant response rating (scale 0 to 100), Flatsedge: Rate 62 g/ha, visually evaluated after 12 to 14 days, 0 = no effect, 100 = complete control
Outline: as §2

Nightshade = assay: Test C preemergence; conditions: Rate 500 g/ha, visual evaluation after 12 to 14 days
Sunflower [13] = assay: Test C preemergence; conditions: Rate 62 g/ha, scale 0 to 100
corn (Zea mays) = assay: Test B preemergence
Outline: as §1

[14] = tested on: lambsquarters (Chenopodium album); assay: Test B preemergence
Outline: as §1

[15] = tested on: Surinam grass (Brachiaria decumbens); assay: Test B preemergence
Outline: as §1

[16] = tested on: velvetleaf (Abutilon theophrasti); assay: Test B preemergence
Outline: as §1

[17] = tested on: giant foxtail (Setaria faberii); assay: Test B preemergence
Outline: as §1

[18] = tested on: crabgrass (Digitaria sanguinalis); assay: Test B preemergence
Outline: as §1

rice (Oryza saliva) [19] = assay: Test B preemergence
Outline: as §1

[20] = tested on: pigweed (Amaranthus retroflexus); assay: Test B preemergence
Outline: as §1

[21] = tested on: cocklebur (Xanthium strumarium); assay: Test B preemergence
Outline: as §1

[22] = tested on: morning glory (Ipomoea hederacea); assay: Test B preemergence
Outline: as §1

[23] = tested on: barnyardgrass (Echinochloa crus-galli); assay: Test B preemergence
Outline: as §1

[24] = Rate 125 g/ha, scale 0 to 100, 0 no effect, 100 complete control
[25] = Rate 500 g/ha, scale 0 (no effect) to 100 (complete control), 13 to 15 days
[26] = Preemergence, Rate 500 g/ha, scale 0 to 100, 0 no effect, 100 complete control
[27] = preemergence, Rate 125 g/ha, scale of 0 to 100 where 0 is no effect and 100 is complete control, 13 to 15 days

## COc1cc(N2CCC(n3ccc(C(C)C)n3)C2=O)ccc1Br (stereo not shown) [Compound 140]
Sunflower [1]
  Plant response rating (0 to 100), Sunflower: 90
Sunflower [2]
  Plant response rating, Sunflower: 60
Wild oat (Avena fatua); [24]
  Plant response rating, Wild Oat: 0
Wild oat (Avena fatua); [25]
  Plant response rating, Wild Oat: 0
[3]; [24]
  Plant response rating, Foxtail, Giant: 0
[3]; [25]
  Plant response rating, Foxtail, Giant: 70
[4]; [24]
  Plant response rating, Crabgrass: 20
[4]; [25]
  Plant response rating, Crabgrass: 80
[5]; [24]
  Plant response rating, Pigweed: 60
[5]; [25]
  Plant response rating, Pigweed: 90
[6]; [24]
  Plant response rating, Cocklebur: 60
[6]; [25]
  Plant response rating, Cocklebur: 90
[7]; [24]
  Plant response rating, Wheat: 0
[7]; [25]
  Plant response rating, Wheat: 0
[8]; [24]
  Plant response rating, Blackgrass: 0
[8]; [25]
  Plant response rating, Blackgrass: 0
Rice (Oryza saliva) [9]
  Rice plant response rating: 50
  Plant response rating (scale 0 to 100), Rice: 0
Rice (Oryza saliva) [9]; Rate 125 g/ha
  Plant response rating, Rice: 30
Rice (Oryza saliva) [9]; Rate 250 g/ha
  Plant response rating, Rice: 35
[10]
  Barnyardgrass plant response rating: 100
  Plant response rating (scale 0 to 100), Barnyardgrass: 50
[10]; Rate 125 g/ha
  Plant response rating, Barnyardgrass: 100
[10]; Rate 250 g/ha
  Plant response rating, Barnyardgrass: 100
[11]
  Ducksalad plant response rating: 95
  Plant response rating (scale 0 to 100), Ducksalad: 20
[11]; Rate 125 g/ha
  Plant response rating, Ducksalad: 75
[11]; Rate 250 g/ha
  Plant response rating, Ducksalad: 95
[12]
  Flatsedge plant response rating: 95
  Plant response rating (scale 0 to 100), Flatsedge: 90
[12]; Rate 125 g/ha
  Plant response rating, Flatsedge: 90
[12]; Rate 250 g/ha
  Plant response rating, Flatsedge: 95
Nightshade
  Plant response rating (0 to 100), Nightshade: 100
Sunflower [13]
  Plant response rating, Sunflower: 30
Corn (Zea mays); [26]
  Plant response rating, Corn: 20
Corn (Zea mays); [27]
  Plant response rating, Corn: 0
[14]; [26]
  Plant response rating, Lambsquarters: 100
[14]; [27]
  Plant response rating, Lambsquarters: 100
[15]; [26]
  Plant response rating, Surinam grass: 100
[15]; [27]
  Plant response rating, Surinam grass: 100
[16]; [26]
  Plant response rating, Velvetleaf: 80
[16]; [27]
  Plant response rating, Velvetleaf: 60
[17]; [26]
  Plant response rating, Foxtail, Giant: 100
[17]; [27]
  Plant response rating, Foxtail, Giant: 100
[18]; [26]
  Plant response rating, Crabgrass: 100
[18]; [27]
  Plant response rating, Crabgrass: 100
Rice (Oryza saliva) [19]; [26]
  Plant response rating, Rice: 40
Rice (Oryza saliva) [19]; [27]
  Plant response rating, Rice: 20
[20]; [26]
  Plant response rating, Pigweed: 100
[20]; [27]
  Plant response rating, Pigweed: 100
[21]; [26]
  Plant response rating, Cocklebur: 60
[21]; [27]
  Plant response rating, Cocklebur: 20
[22]; [26]
  Plant response rating, Morningglory: 100
[22]; [27]
  Plant response rating, Morningglory: 0
[23]; [26]
  Plant response rating, Barnyardgrass: 100
[23]; [27]
  Plant response rating, Barnyardgrass: 100

## COc1cc(N2CCC(n3ccc(C(C)(C)C)n3)C2=O)ccc1Br (stereo not shown) [Compound 141]
Sunflower [1]
  Plant response rating (0 to 100), Sunflower: 100
Sunflower [2]
  Plant response rating, Sunflower: 40
Wild oat (Avena fatua); [24]
  Plant response rating, Wild Oat: 0
Wild oat (Avena fatua); [25]
  Plant response rating, Wild Oat: 0
[3]; [24]
  Plant response rating, Foxtail, Giant: 30
[3]; [25]
  Plant response rating, Foxtail, Giant: 50
[4]; [24]
  Plant response rating, Crabgrass: 20
[4]; [25]
  Plant response rating, Crabgrass: 40
[5]; [24]
  Plant response rating, Pigweed: 80
[5]; [25]
  Plant response rating, Pigweed: 100
[6]; [24]
  Plant response rating, Cocklebur: 40
[6]; [25]
  Plant response rating, Cocklebur: 100
[7]; [24]
  Plant response rating, Wheat: 0
[7]; [25]
  Plant response rating, Wheat: 0
[8]; [24]
  Plant response rating, Blackgrass: 0
[8]; [25]
  Plant response rating, Blackgrass: 40
Rice (Oryza saliva) [9]
  Rice plant response rating: 35
  Plant response rating (scale 0 to 100), Rice: 0
Rice (Oryza saliva) [9]; Rate 125 g/ha
  Plant response rating, Rice: 25
Rice (Oryza saliva) [9]; Rate 250 g/ha
  Plant response rating, Rice: 30
[10]
  Barnyardgrass plant response rating: 100
  Plant response rating (scale 0 to 100), Barnyardgrass: 70
[10]; Rate 125 g/ha
  Plant response rating, Barnyardgrass: 100
[10]; Rate 250 g/ha
  Plant response rating, Barnyardgrass: 100
[11]
  Ducksalad plant response rating: 100
  Plant response rating (scale 0 to 100), Ducksalad: 85
[11]; Rate 125 g/ha
  Plant response rating, Ducksalad: 95
[11]; Rate 250 g/ha
  Plant response rating, Ducksalad: 100
[12]
  Flatsedge plant response rating: 95
  Plant response rating (scale 0 to 100), Flatsedge: 90
[12]; Rate 125 g/ha
  Plant response rating, Flatsedge: 90
[12]; Rate 250 g/ha
  Plant response rating, Flatsedge: 95
Nightshade
  Plant response rating (0 to 100), Nightshade: 100
Sunflower [13]
  Plant response rating, Sunflower: 30
Corn (Zea mays); [26]
  Plant response rating, Corn: 20
Corn (Zea mays); [27]
  Plant response rating, Corn: 0
[14]; [26]
  Plant response rating, Lambsquarters: 100
[14]; [27]
  Plant response rating, Lambsquarters: 100
[15]; [26]
  Plant response rating, Surinam grass: 100
[15]; [27]
  Plant response rating, Surinam grass: 100
[16]; [26]
  Plant response rating, Velvetleaf: 100
[16]; [27]
  Plant response rating, Velvetleaf: 70
[17]; [26]
  Plant response rating, Foxtail, Giant: 100
[17]; [27]
  Plant response rating, Foxtail, Giant: 100
[18]; [26]
  Plant response rating, Crabgrass: 100
[18]; [27]
  Plant response rating, Crabgrass: 100
Rice (Oryza saliva) [19]; [26]
  Plant response rating, Rice: 50
Rice (Oryza saliva) [19]; [27]
  Plant response rating, Rice: 30
[20]; [26]
  Plant response rating, Pigweed: 100
[20]; [27]
  Plant response rating, Pigweed: 100
[21]; [26]
  Plant response rating, Cocklebur: 100
[21]; [27]
  Plant response rating, Cocklebur: 70
[22]; [26]
  Plant response rating, Morningglory: 100
[22]; [27]
  Plant response rating, Morningglory: 90
[23]; [26]
  Plant response rating, Barnyardgrass: 100
[23]; [27]
  Plant response rating, Barnyardgrass: 100
